Laboratory results as given in patent US8268859B2, “Glucocorticoid mimetics, methods of making them, pharmaceutical compositions and uses thereof” (Boehringer Ingelheim International GmbH, priority 2008, dated 2012).
pIC50: −log10 of the molar value. In brackets after ≈: the same amount, converted by molar mass. Like-named read-outs stand apart in the source and are kept apart here.

What was measured:
[1] = High throughput solubility; assay type: physicochemical; settings: aqueous buffer (pION system solution), pH 7, aqueous buffer, kinetic from dmso stock
[2] = Human microsomal stability; assay type: in vitro ADME; settings: pH 7.4; human liver microsomes; read-out: human liver microsome half life
[3] = molecular target: T1, Potassium Channel HERG (Homo sapiens, UniProt Q12809); assay: hERG assays (either hERG binding assay or hERG patch clamp assay); assay type: cell-based; settings: Table 3, not specified per compound
T1 construct: expressed in transfected cells; host or cells: HEK-293 cells
T1 sequence (Q12809 whole entry): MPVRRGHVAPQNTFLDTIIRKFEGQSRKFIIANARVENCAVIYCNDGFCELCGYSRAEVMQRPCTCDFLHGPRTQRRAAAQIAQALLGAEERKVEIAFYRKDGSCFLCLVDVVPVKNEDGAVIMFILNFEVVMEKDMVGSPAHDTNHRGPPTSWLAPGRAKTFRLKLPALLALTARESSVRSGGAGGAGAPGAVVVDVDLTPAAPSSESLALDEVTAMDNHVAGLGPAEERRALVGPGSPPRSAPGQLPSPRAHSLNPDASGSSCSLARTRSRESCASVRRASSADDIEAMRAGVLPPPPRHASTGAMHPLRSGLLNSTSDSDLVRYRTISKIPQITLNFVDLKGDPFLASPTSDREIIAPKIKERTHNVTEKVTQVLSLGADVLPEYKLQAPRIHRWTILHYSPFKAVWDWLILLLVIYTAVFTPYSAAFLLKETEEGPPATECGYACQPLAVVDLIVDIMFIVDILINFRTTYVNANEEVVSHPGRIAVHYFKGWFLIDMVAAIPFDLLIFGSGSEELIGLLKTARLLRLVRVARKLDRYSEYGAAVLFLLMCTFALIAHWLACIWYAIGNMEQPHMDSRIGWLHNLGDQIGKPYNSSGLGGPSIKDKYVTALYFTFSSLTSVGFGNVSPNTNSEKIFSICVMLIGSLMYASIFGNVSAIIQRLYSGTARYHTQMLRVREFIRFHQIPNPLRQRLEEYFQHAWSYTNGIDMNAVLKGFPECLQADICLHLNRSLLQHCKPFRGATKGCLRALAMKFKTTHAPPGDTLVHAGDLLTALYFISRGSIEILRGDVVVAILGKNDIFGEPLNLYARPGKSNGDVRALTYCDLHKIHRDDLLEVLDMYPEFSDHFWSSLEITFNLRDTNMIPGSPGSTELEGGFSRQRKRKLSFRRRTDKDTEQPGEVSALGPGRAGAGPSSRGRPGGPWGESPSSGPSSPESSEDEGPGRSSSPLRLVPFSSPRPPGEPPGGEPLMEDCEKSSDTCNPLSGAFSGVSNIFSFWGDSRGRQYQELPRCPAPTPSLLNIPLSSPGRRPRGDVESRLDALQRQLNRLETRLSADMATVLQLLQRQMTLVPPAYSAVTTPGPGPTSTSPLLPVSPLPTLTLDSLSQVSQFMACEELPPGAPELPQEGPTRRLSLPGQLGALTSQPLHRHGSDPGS

[4] = molecular target: T2, human glucocorticoid receptor (GR) complex (Homo sapiens, UniProt P04150); assay: Glucocorticoid receptor fluorescence polarization competitive binding assay;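 also: GR complex expressed in an insect system, wells lacking compound give full signal, excess unlabeled dexamethasone defines the blank, IC50 from logistic curve fit of polarization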
T2 construct: made in house; host or cells: insect expression system (baculovirus lysate)
T2 sequence (P04150 1-777): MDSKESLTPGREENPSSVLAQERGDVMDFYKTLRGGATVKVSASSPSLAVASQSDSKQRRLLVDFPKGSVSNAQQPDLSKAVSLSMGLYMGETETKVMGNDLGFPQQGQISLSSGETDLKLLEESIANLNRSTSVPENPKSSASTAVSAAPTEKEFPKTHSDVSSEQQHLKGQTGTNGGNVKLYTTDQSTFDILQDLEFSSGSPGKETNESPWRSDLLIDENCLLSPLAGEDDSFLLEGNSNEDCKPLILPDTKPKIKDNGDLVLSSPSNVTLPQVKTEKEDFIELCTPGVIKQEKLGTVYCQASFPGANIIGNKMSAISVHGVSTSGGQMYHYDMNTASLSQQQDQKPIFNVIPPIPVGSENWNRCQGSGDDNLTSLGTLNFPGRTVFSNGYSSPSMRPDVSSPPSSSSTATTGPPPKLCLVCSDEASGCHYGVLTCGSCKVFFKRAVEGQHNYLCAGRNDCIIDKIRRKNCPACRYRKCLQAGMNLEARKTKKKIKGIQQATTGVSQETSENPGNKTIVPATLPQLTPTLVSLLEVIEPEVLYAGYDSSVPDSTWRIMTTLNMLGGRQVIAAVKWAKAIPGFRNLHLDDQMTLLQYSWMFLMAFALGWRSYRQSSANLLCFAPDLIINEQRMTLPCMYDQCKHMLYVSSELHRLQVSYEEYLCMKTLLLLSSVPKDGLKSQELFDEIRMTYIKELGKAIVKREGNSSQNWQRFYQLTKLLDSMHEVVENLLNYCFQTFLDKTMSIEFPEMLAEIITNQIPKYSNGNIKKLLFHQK

[5] = molecular target: human recombinant CYP3A4 (Homo sapiens, UniProt P08684); assay: Cytochrome P450 inhibition assay (substrate 7-benzyloxy-4-(trifluoromethyl)coumarin); assay type: in vitro ADME;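 also: compounds preincubated at least 10 min at 37 °C before adding enzyme plus substrate, reaction run 30 min at 37 °C, ketoconazole standard curve on every plate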
human recombinant CYP3A4, sequence (P08684 whole entry): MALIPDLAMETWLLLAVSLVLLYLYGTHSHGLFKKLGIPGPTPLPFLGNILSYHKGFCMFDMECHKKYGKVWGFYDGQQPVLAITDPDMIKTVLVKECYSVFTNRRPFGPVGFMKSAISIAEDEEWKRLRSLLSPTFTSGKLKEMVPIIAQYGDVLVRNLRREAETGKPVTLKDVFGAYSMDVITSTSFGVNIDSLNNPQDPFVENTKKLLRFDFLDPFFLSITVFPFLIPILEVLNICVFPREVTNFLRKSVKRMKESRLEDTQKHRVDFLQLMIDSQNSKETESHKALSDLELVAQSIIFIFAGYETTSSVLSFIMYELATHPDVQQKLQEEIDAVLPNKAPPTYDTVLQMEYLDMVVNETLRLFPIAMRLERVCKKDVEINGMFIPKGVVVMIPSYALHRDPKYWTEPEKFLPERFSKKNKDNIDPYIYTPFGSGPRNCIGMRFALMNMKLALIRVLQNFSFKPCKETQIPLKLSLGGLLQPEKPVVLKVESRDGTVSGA

[6] = Table 1, competition with TAMRA-labeled dexamethasone, read-out: GR IC50

Row | pIC50 ([5]; Table 1, read-out: CYP3A4 IC50) | pIC50 [4, 6] | Structure (SMILES) | also measured
1 | – | – | CC(C)(CC(O)(Cc1cc2cc(S(C)(=O)=O)ncc2[nH]1)C(F)(F)F)c1ccccc1S(C)(=O)=O (centres unmarked) | solubility [1]: 59 µg/mL (≈ 114 µM); half-life [2]: < 3 min
2 | – | – | CC(C)(C[C@@](O)(Cc1cc2cc(S(C)(=O)=O)ncc2[nH]1)C(F)(F)F)c1ccccc1C(N)=O | solubility [1]: 17 µg/mL (≈ 35.2 µM); pIC50 [3]: < 4.52; half-life [2]: 44 min
3 | – | – | CCS(=O)(=O)c1cc2cc(C[C@](O)(CC(C)(C)c3ccc(F)cc3C(N)=O)C(F)(F)F)[nH]c2cn1 | solubility [1]: > 100 µg/mL; half-life [2]: > 300 min
4 | – | – | CC(C)(CC(O)(Cc1cc2cc(S(C)(=O)=O)ncc2[nH]1)C(F)(F)F)c1ccc(F)cc1C(N)=O (centres unmarked) | solubility [1]: > 100 µg/mL; pIC50 [3]: < 4.52; half-life [2]: 45 min
5 | 4.66 | 7.01 | CC(C)S(=O)(=O)c1cc2cc(CC(O)(CC(C)(C)c3ccccc3S(C)(=O)=O)C(F)(F)F)[nH]c2cn1 (centres unmarked) [1,1,1-Trifluoro-4-(2-methanesulfonylphenyl)-4-methyl-2-[5-(propane-2-sulfonyl)-1H-pyrrolo[2,3-c]pyridin-2-ylmethyl]pentan-2-ol] | –
6 | 4.92 | 7.19 | CC(C)(CC(O)(Cc1cc2nc(S(C)(=O)=O)ccc2[nH]1)C(F)(F)F)c1cccc(F)c1S(C)(=O)=O (centres unmarked) [1,1,1-Trifluoro-4-(3-fluoro-2-methanesulfonylphenyl)-2-(5-meethanesulfonyl-1H-pyrrolo[3,2-b]pyridin-2-ylmethyl)-4-methylpentan-2-ol] | –
7 | < 4.52 | 7.21 | CC(C)(CC(O)(Cc1cc2cc(S(C)(=O)=O)ncc2[nH]1)C(F)(F)F)c1cccc(F)c1S(C)(=O)=O (centres unmarked) [1,1,1-Trifluoro-4-(3-fluoro-2-methanesulfonylphenyl)-2-(5-methanesulfonyl-1H-pyrrolo[2,3-c]pyridin-2-ylmethyl)-4-methylpentan-2-ol] | –
8 | < 4.52 | 6.68 | CC(C)S(=O)(=O)c1cc2cc(CC(O)(CC(C)(C)c3cccc(F)c3S(C)(=O)=O)C(F)(F)F)[nH]c2cn1 (centres unmarked) [1,1,1-Trifluoro-4-(3-fluoro-2-methanesulfonylphenyl)-4-methyl-2-[5-(propane-2-sulfonyl)-1H-pyrrolo[2,3-c]pyridin-2-ylmethyl]pentan-2-ol] | –
9 | 4.72 | 7.28 | CC(C)S(=O)(=O)c1cc2cc(CC(O)(CC(C)(C)c3ccc(F)cc3S(C)(=O)=O)C(F)(F)F)[nH]c2cn1 (centres unmarked) [1,1,1-Trifluoro-4-(4-fluoro-2-methanesulfonylphenyl)-4-methyl-2-[5-(propane-2-sulfonyl)-1H-pyrrolo[2,3-c]pyridin-2-ylmethyl]pentan-2-ol] | –
10 | 5.13 | 7.05 | CC(C)(CC(O)(Cc1cc2cc(S(C)(=O)=O)ncc2[nH]1)C(F)(F)F)c1cccc2c1S(=O)(=O)C=C2 (centres unmarked) [4-(1,1-Dioxo-1H-1λ^6-benzo[b]thiophen-7-yl)-1,1,1-trifluoro-2-(5-methanesulfonyl-1H-pyrrolo[2,3-c]pyridin-2-ylmethyl)-4-methylpentan-2-ol] | –
11 | 5.39 | 7.24 | CCS(=O)(=O)c1cc2cc(CC(O)(CC(C)(C)c3cccc4c3S(=O)(=O)C=C4)C(F)(F)F)[nH]c2cn1 (centres unmarked) [4-(1,1-Dioxo-1H-1λ^6-benzo[b]thiophen-7-yl)-2-(5-ethanesulfonyl-1H-pyrrolo[2,3-c]pyridin-2-ylmethyl)-1,1,1-trifluoro-4-methylpentan-2-ol] | –
12 | 4.64 | 8.15 | CC(C)(CC(O)(Cc1cc2cc(S(C)(=O)=O)ncc2[nH]1)C(F)(F)F)c1ccccc1Br (centres unmarked) [4-(2-Bromophenyl)-1,1,1-trifluoro-2-(5-methanesulfonyl-1H-pyrrolo[2,3-c]pyridin-2-ylmethyl)-4-methylpentan-2-ol] | –
13 | 6.05 | 7.85 | CCCS(=O)(=O)c1cc2cc(CC(O)(CC(C)(C)c3cc(Cl)ccc3S(C)(=O)=O)C(F)(F)F)[nH]c2cn1 (centres unmarked) [4-(5-Chloro-2-methanesulfonylphenyl)-1,1,1-trifluoro-4-methyl-2-[5-(propane-1-sulfonyl)-1H-pyrrolo[2,3-c]pyridin-2-ylmethyl]pentan-2-ol] | –
14 | 5.22 | 7.77 | CC(C)S(=O)(=O)c1cc2cc(CC(O)(CC(C)(C)c3cc(Cl)ccc3S(C)(=O)=O)C(F)(F)F)[nH]c2cn1 (centres unmarked) [4-(5-Chloro-2-methanesulfonylphenyl)-1,1,1-trifluoro-4-methyl-2-[5-(propane-2-sulfonyl)-1H-pyrrolo[2,3-c]pyridin-2-ylmethyl]pentan-2-ol] | –
15 | 5.25 | 8.15 | CC(C)(CC(O)(Cc1cc2cc(S(C)(=O)=O)ncc2[nH]1)C(F)(F)F)c1cc(Br)ccc1O (centres unmarked) [4-Bromo-2-[4,4,4-trifluoro-3-hydroxy-3-(5-methanesulfonyl-1H-pyrrolo[2,3-c]pyridin-2-ylmethyl)-1,1-dimethylbutyl]phenol] | –
16 | 4.96 | 6.68 | CC(C)(C[C@@](O)(Cc1cc2nc(S(C)(=O)=O)ncc2[nH]1)C(F)(F)F)c1ccc(F)cc1C(N)=O [5-Fluoro-2-[(R)-4,4,4-trifluoro-3-hydroxy-3-(2-methanesulfonyl-5H-pyrrolo[3,2-d]pyrimidin-6-ylmethyl)-1,1-dimethylbutyl]benzamide] | –
17 | 4.82 | 7.85 | CC(C)(C[C@@](O)(Cc1cc2nc(S(C)(=O)=O)ccc2[nH]1)C(F)(F)F)c1cccc(Br)c1 [(R)-4-(3-Bromophenyl)-1,1,1-trifluoro-2-(5-methanesulfonyl-1H-pyrrolo[3,2-b]pyridin-2-ylmethyl)-4-methylpentan-2-ol] | –
18 | 5.74 | 8.15 | CCS(=O)(=O)c1cc2cc(C[C@](O)(CC(C)(C)c3cc(Cl)cc4c3OCC4)C(F)(F)F)[nH]c2cn1 [(R)-4-(5-Chloro-2,3-dihydrobenzofuran-7-yl)-2-(5-ethanesulfonyl-1H-pyrrolo[2,3-c]pyridin-2-ylmethyl)-1,1,1-trifluoro-4-methylpentan-2-ol] | –
19 | 5.19 | 8.22 | CC(C)(C[C@@](O)(Cc1cc2cc(S(C)(=O)=O)ncc2[nH]1)C(F)(F)F)c1cc(Cl)cc2c1OCC2 [drawing 3, (R)-4-(5-Chloro-2,3-dihydrobenzofuran-7-yl)-1,1,1-trifluoro-2-(5-methanesulfonyl-1H-pyrrolo[2,3-c]pyridin-2-ylmethyl)-4-methylpentan-2-ol] | –
20 | – | – | CC(C)(C[C@@](O)(Cc1cc2cc(S(C)(=O)=O)ncc2[nH]1)C(F)(F)F)c1cc(Cl)cc2c1OCC2 [drawing 95] | pIC50 [3]: 5.03; pIC50 ([5]; Table 3, read-out: CYP3A4 Inhibition IC50): 5.19; half-life [2]: < 3 min
21 | – | – | CC(C)(C[C@@](O)(Cc1cc2cc(S(C)(=O)=O)ncc2[nH]1)C(F)(F)F)c1ccc(Cl)cc1S(C)(=O)=O [drawing 97] | solubility [1]: 40 µg/mL (≈ 72.3 µM); pIC50 [3]: < 5.00; half-life [2]: 17 min
22 | – | – | CCS(=O)(=O)c1cc2cc(CC(O)(CC(C)(C)c3ccc(Cl)cc3S(C)(=O)=O)C(F)(F)F)[nH]c2cn1 (centres unmarked) [drawing 98] | solubility [1]: 18 µg/mL (≈ 31.7 µM); pIC50 [3]: < 5.00; half-life [2]: 11 min

Row | Structure (SMILES) | pIC50 ([5]; Table 1, read-out: CYP3A4 IC50) | pIC50 [4, 6] | also measured
23 | CCCS(=O)(=O)c1cc2cc(CC(O)(CC(C)(C)c3ccccc3S(C)(=O)=O)C(F)(F)F)[nH]c2cn1 (centres unmarked) [1,1,1-Trifluoro-4-(2-methanesulfonylphenyl)-4-methyl-2-[5-(propane-1-sulfonyl)-1H-pyrrolo[2,3-c]pyridin-2-ylmethyl]pentan-2-ol] | 5.80 | – | pIC50 [4]: 7.62
24 | CC(C)(CC(O)(Cc1cc2nc(S(C)(=O)=O)ccc2[nH]1)C(F)(F)F)c1cc(Cl)ccc1S(C)(=O)=O (centres unmarked) [4-(5-Chloro-2-methanesulfonylphenyl)-1,1,1-trifluoro-2-(5-methanesulfonyl-1H-pyrrolo[3,2-b]pyridin-2-ylmethyl)-4-methylpentan-2-ol] | 5.39 | – | pIC50 [4]: 8.10
25 | CC(C)(CC(O)(Cc1cc2cc(S(C)(=O)=O)ncc2[nH]1)C(F)(F)F)c1cccc2ccsc12 (centres unmarked) [4-Benzo[b]thiophen-7-yl-1,1,1-trifluoro-2-(5-methanesulfonyl-1H-pyrrolo[2,3-c]pyridin-2-ylmethyl)-4-methylpentan-2-ol] | 5.57 | – | pIC50 [4]: 8.00
26 | CC(C)(C[C@@](O)(Cc1cc2nc(S(C)(=O)=O)ccc2[nH]1)C(F)(F)F)c1ccc(F)cc1C(N)=O [5-Fluoro-2-[(R)-4,4,4-trifluoro-3-hydroxy-3-(5-methanesulfonyl-1H-pyrrolo[3,2-b]pyridin-2-ylmethyl)-1,1-dimethyl-butyl]benzamide] | 5.15 | – | pIC50 [4]: 7.57
27 | CC(C)(C[C@@](O)(Cc1cc2cc(S(C)(=O)=O)ncc2[nH]1)C(F)(F)F)c1cccc(Br)c1 [(R)-4-(3-Bromophenyl)-1,1,1-trifluoro-2-(5-methanesulfonyl-1H-pyrrolo[2,3-c]pyridin-2-ylmethyl)-4-methylpentan-2-ol] | 4.70 | – | pIC50 [4]: 8.05
